Article PMC12655060, “Modified Hevein-like Peptide from Amaranthus caudatus as a Promising Agent Against Pathogenic Candida Species” (Pharmaceutics, 2025)
≈ marks a conversion by molar mass, not a printed value. Where “and” joins values, the source holds several entries; their conditions need not be identical. Equal values may be shown once. Read-outs that look alike come from different tables or passages of the source. Positions of bridges follow the written chain, without caps; N, C: chain ends. No end group written: not given here.

Key:
C. albicans 8.2 [1] = settings: 12.5 μM (2 × MIC) and 25 μM (4 × MIC), same conditions; cited from earlier work
C. albicans 9.1 [2] = settings: 12.5 μM (2 × MIC) and 25 μM (4 × MIC), same conditions; cited from earlier work
C. albicans 8.2 [3] = format: cell-based, Candida albicans; settings: for [A]/MICA: ratio for mAc-AMP2 in the combination; for [B]/MICB: ratio for the named agent in the combination
Protocol: (§1) Serial dilutions of the mixture of two combinable substances were added to the equal volumes of fungal cell suspensions in this case. […] Caspofungin or ebselen in 1% DMSO as well as voriconazole in 1% methanol were tested in these experiments.

C. albicans 9.1 [4] = format: cell-based, Candida albicans; settings: for [A]/MICA: ratio for mAc-AMP2 in the combination; for [B]/MICB: ratio for the named agent in the combination
Protocol: as §1

C. albicans ATCC 18804 [5] = format: cell-based, Candida albicans
Protocol: as §1

C. albicans ATCC 18804 [6] = settings: for MIC, RPMI-1640 / MIC, ½Sabouraud broth: Table S4; for antifungal activity in RPMI-1640: at a concentration of 50 μM
Protocol: (§2) Briefly, fungal cells at a concentration of 4 × 10^4 cells/mL in the Sabouraud broth were mixed with equal volumes of serial dilutions of the peptide in water (final volume 100 μL and pH 6.0) and incubated at 30 °C for 24 h. Inhibition of fungal growth was assessed relative to the peptide-free control, based on absorbance at 630 nm and microscopic analysis. MIC50 and MIC were defined as minimal concentrations of the peptide, causing 50 and 100% inhibition of fungal growth. […] The effects of heating and reduction in disulfide bonds on the activity of the peptide towards C. albicans ATCC 18804 was also tested. […] Tobacco defensin NaD1, whose structure is also stabilized by disulfide bonds, was used for comparison in these experiments. The effect of reduced L-glutathione (AppliChem, Darmstadt, Germany), a component of RPMI-1640 medium, at a final concentration of 3.25 μM, was also studied.
(§3) Each experiment was conducted twice in triplicate. The microplate wells were pre-treated with 0.1% BSA to minimize adsorption of antifungal agents.

C. albicans ATCC 18804 [7] = assay: Resistance induction experiments (serial passage); format: cell-based, Candida albicans; settings: passaging at 0.25 × MIC for 24 days; mAc-AMP2 8th and 24th, caspofungin 21, LL-37 24th passage
Protocol: For comparison, the echinocandin caspofungin, human cathelicidin LL-37, and tobacco defensin NaD1 were used in these experiments. C. albicans ATCC 18804 or ATCC 10231 at a concentration of 4 × 10^4 cells/mL were added to serial dilutions of antifungal agents. The 96-well microplates were incubated overnight at 30 °C and MIC values were determined as described above. […] Sequential passaging followed by MIC determination continued for 24 days. […] After that whole cultures as well as single colonies were used for MICs determination to confirm the stability of acquired resistance to the peptide.

C. albicans 8.2 [8] = assay: Prevention of adhesion to the plastic surface; format: cell-based, Candida albicans; settings: for Cell adhesion, % / Inhibition of adhesion, %: plastic surface
Protocol: The plates were incubated for 1.5 h at 37 °C; after that, plate wells were washed twice with PBS to remove unattached C. albicans cells. Adherent cells were detached by microplate incubation for 45 min with trypsin/EDTA solution. Enzymatic activity was stopped by an addition of 10% FBS. After that the well contents were scraped, diluted 100-fold with PBS, and plated on Sabouraud agar with glucose and chloramphenicol. In this case, adhesion was calculated as ((N × 100)/5 × 10^5) × 100%, and adhesion inhibition was calculated as described above. These experiments were carried out twice in triplicate.

C. albicans ATCC 18804 [9] = test system: C. albicans ATCC 18804; set-up: method as in PMID 39770352, PMID 39337545; settings: 2 h, same conditions; cited from earlier work
C. albicans 8.2 [10] = assay: Antifungal microdilution assay; format: cell-based; settings: Candida albicans, Sabouraud broth
Protocol: as §2, §3

C. albicans ATCC 18804 [11] = assay: Calcofluor White binding assay (cell wall chitin content); format: cell-based, Candida albicans; settings: at MIC
Protocol: Polyene antimycotic amphotericin B (AmB) was also used in these experiments. […] Cell cultures were harvested, washed twice with PBS, and stained with 20 μg/mL CFW in PBS for 30 min. After that stained cells were washed three times with PBS and the cell density of each group was adjusted to 10^6 cells/mL using Cell Counter LUNA-II (Logos Biosystems, Anyang-si, Republic of Korea) and trypan blue. Unstained or stained untreated by antifungal agent cells were used as negative and positive controls, respectively. Fluorescence intensities were measured at 20 °C using a Hitachi F-2710 spectrofluorometer (Hitachi High Technologies America Inc., Pleasanton, CA, USA) with excitation and emission wavelengths of 350 nm (10 nm width) and 435 nm, respectively. Results were expressed as % of fluorescence intensity in comparison to positive control. This study was performed twice in triplicate.

[12] = test system: Caco-2 cells in a monolayer; assay: Cytotoxicity assay (resazurin); format: cell-based, human; settings: 12.5 µM, 24 h
Protocol: Then 10 µL of resazurin at a concentration of 0.7 mM was added and the incubation was continued for 4 h. Untreated cells and cells in the presence of 0.1% Triton X-100 were used as negative and positive controls, respectively. The cell viability was estimated by resorufin fluorescence registered at 595 nm as (Fsample/Fcontrol) × 100%. Wells containing no cells were used to subtract background fluorescence. This experiment was carried out twice in duplicate.

[13] = ratio of mAc-AMP2 concentration in the combination with the named agent to its MIC
[14] = ratio of the named agent's concentration in combination with mAc-AMP2 to its MIC
[15] = combination of the named agent with mAc-AMP2

For “RECKTESNTFPGICITKPPCRKACISEKFTDGHCSKILRRCLCTKPC (disulfide 3-47, 14-34, 20-41, 24-43 (inferred)) [NaD1]”, the “effect on adhesion to the Caco-2 cell monolayer” value (C. albicans 8.2 [1]) is listed as “effectively inhibited the adhesion”, the “effect on adhesion to the Caco-2 cell monolayer” value (C. albicans 9.1 [2]) is listed as “effectively inhibited the adhesion” and the FICI (C. albicans 8.2 [3]; 8.2) is listed as 1. For the same molecule, the “[A]/MICA” value (C. albicans 8.2 [3]; strain 8.2) was 0.5, the “[B]/MICB” value (C. albicans 8.2 [3]; strain 8.2) was 0.5 and the FICI (C. albicans 9.1 [4]; 9.1) was 1. The “[A]/MICA” value (C. albicans 9.1 [4]; strain 9.1) was 0.5, the “[B]/MICB” value (C. albicans 9.1 [4]; strain 9.1) was 0.5 and the FICI (C. albicans ATCC 18804 [5]) was 0.75. The “[A]/MICA” value (C. albicans ATCC 18804 [5]; [13]) was 0.5, the “[B]/MICB” value (C. albicans ATCC 18804 [5]; [14]) was 0.25 and the MFC (C. albicans ATCC 18804 [6]; ATCC 18804, 24 h) was 25 µM. The MIC (C. albicans ATCC 18804 [6]; ATCC 18804, 24 h) was 6.25 µM, the MFC (C. albicans ATCC 18804 [6]; ATCC 18804, 24 h, pH 6) was 12.5 µM and the MIC (C. albicans ATCC 18804 [6]; ATCC 18804, 24 h, pH 6) was 6.25 µM. The “MIC increase during serial passage” value (C. albicans ATCC 18804 [7]) was “no change in the sensitivity”, the “Cell adhesion, %” value (C. albicans 8.2 [8]; 3.13 μM) was 5.29% and the “Cell adhesion, %” value (C. albicans 8.2 [8]; 6.25 μM) was 0.96%. The “Inhibition of adhesion, %” value (C. albicans 8.2 [8]; 6.25 μM) was 81.32%, the “Cell adhesion, %” value (C. albicans 8.2 [8]; 12.5 μM, Sabouraud broth, 1.5 h, 37 °C) was 0.15% and the “Inhibition of adhesion, %” value (C. albicans 8.2 [8]; 12.5 μM) was 97.12% and ~100%. The “Cell adhesion, %” value (C. albicans 8.2 [8]; 25 μM, Sabouraud broth, 1.5 h, 37 °C) was 0.05% and the “Inhibition of adhesion, %” value (C. albicans 8.2 [8]; 25 μM) was 99.03%.

For `CC[C@H](C)C[C@H](C)CCCCCCCCC(=O)N[C@H]1C[C@@H](O)[C@@H](NCCN)NC(=O)[C@@H]2[C@@H](O)CCN2C(=O)[C@H]([C@H](O)CCN)NC(=O)[C@H]([C@H](O)[C@@H](O)c2ccc(O)cc2)NC(=O)[C@@H]2C[C@@H](O)CN2C(=O)[C@H]([C@@H](C)O)NC1=O` [Caspofungin], the “effect on PI uptake” value (C. albicans ATCC 18804 [9]) is given as “no effects”, the FICI (C. albicans ATCC 18804 [5]; [15]) is given as 2 and the “[A]/MICA” value (C. albicans ATCC 18804 [5]; [13]) is given as 1. For the same molecule, the “[B]/MICB” value (C. albicans ATCC 18804 [5]; [14]) was 1, the MIC (C. albicans 8.2 [10]) was 0.04 µg/mL (≈ 0.0366 µM) and the “MIC increase during serial passage” value (C. albicans ATCC 18804 [7]) was “eight-fold”. The inhibition at 5.12 µg/mL (C. albicans 8.2 [8]; Candida albicans, 8.2, read-out: Inhibition of adhesion) was about 40%.

For `C[C@@H]1[C@H](O)[C@@H](C)/C=C/C=C/C=C/C=C/C=C/C=C/C=C/[C@H](O[C@@H]2O[C@H](C)[C@@H](O)[C@H](N)[C@@H]2O)C[C@@H]2O[C@](O)(C[C@@H](O)C[C@@H](O)[C@H](O)CC[C@@H](O)C[C@@H](O)CC(=O)O[C@H]1C)C[C@H](O)[C@H]2C(=O)O` [amphotericin B], the “effect on PI uptake” value (C. albicans ATCC 18804 [9]) is listed as “no effects” and the “fluorescence intensity of Calcofluor White-stained cells” value (C. albicans ATCC 18804 [11]) is listed as “reduced”.

With `C[C@@H](c1ncncc1F)[C@](O)(Cn1cncn1)c1ccc(F)cc1F` [Voriconazole] the FICI (C. albicans ATCC 18804 [5]; combination with mAc-AMP2, for voriconazole MIC50 values were used) was 2, the “[A]/MICA” value (C. albicans ATCC 18804 [5]; ratio for mAc-AMP2 in the combination, for voriconazole MIC50 values were used) was 1 and the “[B]/MICB” value (C. albicans ATCC 18804 [5]; ratio for voriconazole in the combination, MIC50 values were used) was 1.

For “GIGDPVTCLKSGAICHPVFCPRRYKQIGTCGLPGTKCCKKP (disulfide 8-37, 15-30, 20-38 (inferred)) [HBD2]”, the “[A]/MICA” value (C. albicans ATCC 18804 [5]; [13]) was 0.5, the “[B]/MICB” value (C. albicans ATCC 18804 [5]; [14]) was 0.5 and the MIC, RPMI-1640 (C. albicans ATCC 18804 [6]) was over 50 µM. The MIC, ½Sabouraud broth (C. albicans ATCC 18804 [6]; ½Sabouraud broth) was 6.25 µM and the “antifungal activity in RPMI-1640” value (C. albicans ATCC 18804 [6]) was “did not exhibit antifungal activity”.

In the case of `O=c1c2ccccc2[se]n1-c1ccccc1` [Ebselen], the FICI (C. albicans 8.2 [3]; combination of the named agent with mAc-AMP2, strain 8.2) is reported as 0.75, the “[A]/MICA” value (C. albicans 8.2 [3]; strain 8.2) is reported as 0.5 and the “[B]/MICB” value (C. albicans 8.2 [3]; strain 8.2) is reported as 0.25. For the same molecule, the FICI (C. albicans 9.1 [4]; combination of the named agent with mAc-AMP2, strain 9.1) was 1, the “[A]/MICA” value (C. albicans 9.1 [4]; strain 9.1) was 0.5 and the “[B]/MICB” value (C. albicans 9.1 [4]; strain 9.1) was 0.5. The FICI (C. albicans ATCC 18804 [5]; [15]) was 1, the “[A]/MICA” value (C. albicans ATCC 18804 [5]; [13]) was 0.5 and the “[B]/MICB” value (C. albicans ATCC 18804 [5]; [14]) was 0.5.

With melittin the cell death [12] was “about 100%”.

In the case of `CC[C@H](C)[C@H](NC(=O)[C@H](CCCCN)NC(=O)[C@H](CCC(=O)O)NC(=O)[C@H](CCCCN)NC(=O)[C@H](CO)NC(=O)[C@H](CCCCN)NC(=O)[C@H](CCCNC(=N)N)NC(=O)[C@H](Cc1ccccc1)NC(=O)[C@H](Cc1ccccc1)NC(=O)[C@H](CC(=O)O)NC(=O)CNC(=O)[C@H](CC(C)C)NC(=O)[C@@H](N)CC(C)C)C(=O)NCC(=O)N[C@@H](CCCCN)C(=O)N[C@@H](CCC(=O)O)C(=O)N[C@@H](Cc1ccccc1)C(=O)N[C@@H](CCCCN)C(=O)N[C@@H](CCCNC(=N)N)C(=O)N[C@H](C(=O)N[C@H](C(=O)N[C@@H](CCC(N)=O)C(=O)N[C@@H](CCCNC(=N)N)C(=O)N[C@H](C(=O)N[C@@H](CCCCN)C(=O)N[C@@H](CC(=O)O)C(=O)N[C@@H](Cc1ccccc1)C(=O)N[C@@H](CC(C)C)C(=O)N[C@@H](CCCNC(=N)N)C(=O)N[C@@H](CC(N)=O)C(=O)N[C@@H](CC(C)C)C(=O)N[C@H](C(=O)N1CCC[C@H]1C(=O)N[C@@H](CCCNC(=N)N)C(=O)N[C@H](C(=O)N[C@@H](CCC(=O)O)C(=O)N[C@@H](CO)C(=O)O)[C@@H](C)O)C(C)C)[C@@H](C)CC)C(C)C)[C@@H](C)CC` [LL-37], the “[A]/MICA” value (C. albicans ATCC 18804 [5]; [13]) is reported as 0.5, the “[B]/MICB” value (C. albicans ATCC 18804 [5]; [14]) is reported as 0.5 and the MIC, RPMI-1640 (C. albicans ATCC 18804 [6]) is reported as over 50 µM. The MIC, ½Sabouraud broth (C. albicans ATCC 18804 [6]; ½Sabouraud broth) was 12.5 µM (≈ 56.2 µg/mL), the “antifungal activity in RPMI-1640” value (C. albicans ATCC 18804 [6]) was “did not exhibit antifungal activity” and the MIC (C. albicans ATCC 18804 [6]; microdilution, ½Sabouraud broth, pH 6.0, no salts, no FBS, 30 °C, 24 h, 100% growth inhibition, twice in triplicate) was 12.5 µM. For the same molecule, the “MIC increase during serial passage” value (C. albicans ATCC 18804 [7]) was “two-fold”.
